Structures can show the parent of a compound that is named as a salt. The source made the active and inactive calls. No cut-off for these calls is given here. Some results are limits rather than exact numbers.

A short description of data set [1]: Cytotoxicity against human KBV cells assessed as cell survival measured after 72 hrs incubation by MTT assay. It is filed as functional, cell-based.
A short description of data set [2]: Cytotoxicity against HUVEC cells assessed as cell survival measured after 72 hrs incubation by MTT assay. Conditions: human. Format: toxicity, cell-based. For orientation: Tetrazolium dyes change colour on reduction, which living cells bring about.
In data set [3] the target is T1, ATP-dependent translocase ABCB1 (Homo sapiens, UniProt P08183). The data set is described as follows: Substrate activity at Pgp in human KVB cells assessed as intracellular accumulation measured after 4 hrs by LC-MS/MS analysis. It is filed as cell-based. The settings on record: kbv.
Data set [4] can be described thus: Cytotoxicity against human HK-2 cells assessed as cell survival measured after 72 hrs incubation by MTT assay. Format: toxicity, cell-based.
The nature of data set [5]: Reversal fold, ratio of 5-fluorouracil IC50 to 5-fluorouracil IC50 in presence of test compound for reversal of multi-drug resistance in human KVB cells at 5 uM measured after 72 hrs by MTT assay. It is filed as functional, KBV.
The target in data set [6] is T1, ATP-dependent translocase ABCB1. The data set is described as follows: Inhibition of P-gp-mediated Ptx-C efflux in human KVB cells assessed as increase in fluorescence intensity incubated for 3 hrs by confocal microscopic analysis. Format: cell-based. Conditions: kbv, at 2.5 to 10 µM, dose 2.5-10 µM.
A short description of data set [7]: Reversal fold, ratio of ADR IC50 to ADR IC50 in presence of test compound for reversal of multi-drug resistance in human KVB cells at 10 uM measured after 72 hrs by MTT. Format: functional, KBV.
The nature of data set [8]: Reversal fold, ratio of ADR IC50 to ADR IC50 in presence of test compound for reversal of multi-drug resistance in human KVB cells at 5 uM measured after 72 hrs by MTT. It is filed as functional, KBV.
Data set [9] in a line: Reversal of multi-drug resistance in human KVB cells assessed as increase in PTX-induced cytotoxicity by measuring cell survival at 10 uM measured after 72 hrs incubation in presence of 100 nM paclitaxel by MTT assay relative to control. Format: functional, KBV.
The nature of data set [10]: Reversal fold, ratio of cisplatin IC50 to cisplatin IC50 in presence of test compound for reversal of multi-drug resistance in human KVB cells at 5 uM measured after 72 hrs by MTT assay. It is filed as functional, KBV.
For data set [11], the target named is Multidrug resistance-associated protein 1 (Homo sapiens, UniProt P33527). As to the kind of experiment: Thermal stabilization of ABCC1 in human KVB cells by CETSA assay. Format: cell-based. The settings on record: kbv.
Data set [12] deals with T1, ATP-dependent translocase ABCB1. As to the kind of experiment: Thermal stabilization of P-gp in human KVB cells at 58 to 61 degreeC by CETSA assay. Format: cell-based. The settings on record: kbv.
Data set [13] has as its system KBV. The data set is described as follows: Potentiation of PTX-mediated inhibition of colony formation of human KVB cells assessed as reduction in colonies measured after 48 hrs by crystal violet staining based analysis. Format: functional, cell-based. Conditions: dose […] µM.
A short description of data set [14]: Cytotoxicity against human KBV cells assessed as cell survival at 10 uM measured after 72 hrs incubation by MTT assay relative to control. It is filed as functional. The settings on record: read-out: Activity.
Data set [15] has as its target T1, ATP-dependent translocase ABCB1. The data set is described as follows: Inhibition of P-gp-mediated rhodamine-123 efflux in human KVB cells assessed as increase in intracellular Rhodamine-123 accumulation incubated for 30 mins by flow cytometry. Format: cell-based. Conditions: kbv, 0.5 h, at 2.5 to 10 µM, dose 2.5-10 µM.
Data set [16] relates to KBV. The data set is described as follows: Reduction in P-gp protein level in human KVB cells at 10 uM measured upto 96 hrs incubation by Western blot analysis. It is filed as functional, cell-based. On the technique in general: In western blotting, separated proteins are transferred to a membrane and probed.
Data set [17] is described as follows: Reversal of multi-drug resistance in human KVB cells assessed as increase in PTX-induced cytotoxicity by measuring cell survival at 5 uM measured after 72 hrs incubation in presence of 100 nM paclitaxel by MTT assay relative to control. Format: functional, KBV.
For data set [18], the system named is KBV. As to the kind of experiment: Effect on P-gp sub-cellular localization in human KVB cells at 10 uM measured for 48 hrs incubation by immunofluorescence assay. Format: functional, cell-based.
Data set [19] can be described thus: Reversal fold, ratio of 5-fluorouracil IC50 to 5-fluorouracil IC50 in presence of test compound for reversal of multi-drug resistance in human KVB cells at 10 uM measured after 72 hrs by MTT assay. Format: functional, KBV.
Data set [20] can be described thus: Reversal fold, ratio of PTX IC50 to PTX IC50 in presence of test compound for reversal of multi-drug resistance in human KVB cells at 10 uM measured after 72 hrs by MTT assay. Format: functional, KBV.
Data set [21] concerns the target T2, Broad substrate specificity ATP-binding cassette transporter ABCG2 (Homo sapiens, UniProt Q9UNQ0).
T2 sequence (Q9UNQ0 whole entry): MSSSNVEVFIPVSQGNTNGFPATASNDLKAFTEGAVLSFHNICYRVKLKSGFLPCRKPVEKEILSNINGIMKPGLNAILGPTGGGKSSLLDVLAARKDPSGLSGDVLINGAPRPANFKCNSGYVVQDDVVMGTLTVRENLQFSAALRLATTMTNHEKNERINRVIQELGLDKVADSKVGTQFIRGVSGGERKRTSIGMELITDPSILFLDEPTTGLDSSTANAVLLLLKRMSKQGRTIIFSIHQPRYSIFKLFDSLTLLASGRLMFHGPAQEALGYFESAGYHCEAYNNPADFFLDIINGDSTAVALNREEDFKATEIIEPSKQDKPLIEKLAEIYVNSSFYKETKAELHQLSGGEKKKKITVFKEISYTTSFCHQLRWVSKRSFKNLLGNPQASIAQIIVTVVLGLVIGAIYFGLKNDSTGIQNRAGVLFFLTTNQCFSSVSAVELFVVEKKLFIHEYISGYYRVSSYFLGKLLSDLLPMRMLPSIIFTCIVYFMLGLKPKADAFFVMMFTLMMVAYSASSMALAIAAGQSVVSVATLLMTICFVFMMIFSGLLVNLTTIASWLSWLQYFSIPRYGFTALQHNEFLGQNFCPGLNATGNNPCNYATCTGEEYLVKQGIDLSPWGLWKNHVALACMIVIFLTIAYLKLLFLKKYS
As to the kind of experiment: Thermal stabilization of ABCG2 in human KVB cells by CETSA assay. It is filed as cell-based. Conditions: kbv.

Data set [22] is described as follows: Reversal fold, ratio of cisplatin IC50 to cisplatin IC50 in presence of test compound for reversal of multi-drug resistance in human KVB cells at 10 uM measured after 72 hrs by MTT assay. Format: functional, KBV.
The test system of data set [23] is KBV. The data set is described as follows: Potentiation of PTX-mediated antimigratory activity against human KVB cells assessed as inhibition of cell migration at 2.5 to 10 uM and incubated for 24 hrs in presence of 50 nM by scratch wound healing assay. Format: functional, cell-based. Conditions: dose 2.5-10 µM.
The nature of data set [24]: Reversal fold, ratio of cisplatin IC50 to cisplatin IC50 in presence of test compound for reversal of multi-drug resistance in human KVB cells at 25 uM measured after 72 hrs by MTT assay. It is filed as functional, KBV.
The target in data set [25] is T1, ATP-dependent translocase ABCB1. The data set is described as follows: Inhibition of P-gp-mediated rhodamine-123 efflux in human KVB cells assessed as increase in intracellular Rhodamine-123 accumulation at 10 uM incubated for 30 mins by flow cytometry. The settings on record: kbv, 0.5 h. Format: cell-based. Background: A flow cytometer gives signals particle by particle.

Data set [26] in a line: Cytotoxicity against human KBV cells assessed as cell survival at 5 uM measured after 72 hrs incubation by MTT assay relative to control. The settings on record: read-out: Activity. It is filed as functional.
Data set [27] is described as follows: Reversal fold, ratio of PTX IC50 to PTX IC50 in presence of test compound for reversal of multi-drug resistance in human KVB cells at 5 uM measured after 72 hrs by MTT. Format: functional, KBV.
Data set [28] relates to KBV. As to the kind of experiment: Antimigratory activity against human KVB cells assessed as inhibition of cell migration at 50 nM and incubated for 24 hrs by scratch wound healing assay. Format: functional, cell-based.
Data set [29] concerns KBV. The data set is described as follows: Inhibition of colony formation of human KVB cells assessed as reduction in colonies at 2.5 uM measured after 48 hrs by crystal violet staining based analysis. It is filed as functional, cell-based.

T1 sequence (P08183 whole entry): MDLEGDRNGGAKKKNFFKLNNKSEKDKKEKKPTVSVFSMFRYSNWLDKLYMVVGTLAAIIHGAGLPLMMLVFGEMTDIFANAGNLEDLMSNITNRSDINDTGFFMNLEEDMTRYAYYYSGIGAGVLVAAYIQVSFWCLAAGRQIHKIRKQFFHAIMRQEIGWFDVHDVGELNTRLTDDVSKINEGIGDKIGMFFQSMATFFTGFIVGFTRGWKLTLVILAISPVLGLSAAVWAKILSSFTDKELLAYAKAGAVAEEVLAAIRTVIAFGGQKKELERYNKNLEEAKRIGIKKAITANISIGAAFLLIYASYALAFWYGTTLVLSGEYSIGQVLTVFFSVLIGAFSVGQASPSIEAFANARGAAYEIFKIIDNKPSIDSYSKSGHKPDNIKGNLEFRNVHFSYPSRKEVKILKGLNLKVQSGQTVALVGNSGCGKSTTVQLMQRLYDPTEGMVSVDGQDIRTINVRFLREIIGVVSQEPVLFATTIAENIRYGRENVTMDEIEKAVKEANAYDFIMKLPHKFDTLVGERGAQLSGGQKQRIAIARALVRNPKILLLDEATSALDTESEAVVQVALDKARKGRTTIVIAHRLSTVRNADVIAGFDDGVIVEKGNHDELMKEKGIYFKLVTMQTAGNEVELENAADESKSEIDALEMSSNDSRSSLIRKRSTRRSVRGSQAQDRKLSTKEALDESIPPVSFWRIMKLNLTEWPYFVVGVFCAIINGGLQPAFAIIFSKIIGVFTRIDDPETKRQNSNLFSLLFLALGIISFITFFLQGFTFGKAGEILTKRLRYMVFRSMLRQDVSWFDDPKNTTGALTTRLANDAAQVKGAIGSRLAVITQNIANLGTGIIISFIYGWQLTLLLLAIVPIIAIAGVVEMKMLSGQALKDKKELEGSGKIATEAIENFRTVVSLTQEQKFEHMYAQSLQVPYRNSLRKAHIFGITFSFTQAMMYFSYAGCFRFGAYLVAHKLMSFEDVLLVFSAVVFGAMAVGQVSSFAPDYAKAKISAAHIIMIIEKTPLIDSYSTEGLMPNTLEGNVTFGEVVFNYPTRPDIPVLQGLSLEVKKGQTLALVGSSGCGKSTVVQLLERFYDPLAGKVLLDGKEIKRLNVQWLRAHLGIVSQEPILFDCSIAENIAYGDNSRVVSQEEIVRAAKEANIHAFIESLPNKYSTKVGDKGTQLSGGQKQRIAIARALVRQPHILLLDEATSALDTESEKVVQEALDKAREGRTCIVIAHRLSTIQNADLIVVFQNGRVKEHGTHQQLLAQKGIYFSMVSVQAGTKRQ
Chain of Multidrug resistance-associated protein 1 (P33527 whole entry): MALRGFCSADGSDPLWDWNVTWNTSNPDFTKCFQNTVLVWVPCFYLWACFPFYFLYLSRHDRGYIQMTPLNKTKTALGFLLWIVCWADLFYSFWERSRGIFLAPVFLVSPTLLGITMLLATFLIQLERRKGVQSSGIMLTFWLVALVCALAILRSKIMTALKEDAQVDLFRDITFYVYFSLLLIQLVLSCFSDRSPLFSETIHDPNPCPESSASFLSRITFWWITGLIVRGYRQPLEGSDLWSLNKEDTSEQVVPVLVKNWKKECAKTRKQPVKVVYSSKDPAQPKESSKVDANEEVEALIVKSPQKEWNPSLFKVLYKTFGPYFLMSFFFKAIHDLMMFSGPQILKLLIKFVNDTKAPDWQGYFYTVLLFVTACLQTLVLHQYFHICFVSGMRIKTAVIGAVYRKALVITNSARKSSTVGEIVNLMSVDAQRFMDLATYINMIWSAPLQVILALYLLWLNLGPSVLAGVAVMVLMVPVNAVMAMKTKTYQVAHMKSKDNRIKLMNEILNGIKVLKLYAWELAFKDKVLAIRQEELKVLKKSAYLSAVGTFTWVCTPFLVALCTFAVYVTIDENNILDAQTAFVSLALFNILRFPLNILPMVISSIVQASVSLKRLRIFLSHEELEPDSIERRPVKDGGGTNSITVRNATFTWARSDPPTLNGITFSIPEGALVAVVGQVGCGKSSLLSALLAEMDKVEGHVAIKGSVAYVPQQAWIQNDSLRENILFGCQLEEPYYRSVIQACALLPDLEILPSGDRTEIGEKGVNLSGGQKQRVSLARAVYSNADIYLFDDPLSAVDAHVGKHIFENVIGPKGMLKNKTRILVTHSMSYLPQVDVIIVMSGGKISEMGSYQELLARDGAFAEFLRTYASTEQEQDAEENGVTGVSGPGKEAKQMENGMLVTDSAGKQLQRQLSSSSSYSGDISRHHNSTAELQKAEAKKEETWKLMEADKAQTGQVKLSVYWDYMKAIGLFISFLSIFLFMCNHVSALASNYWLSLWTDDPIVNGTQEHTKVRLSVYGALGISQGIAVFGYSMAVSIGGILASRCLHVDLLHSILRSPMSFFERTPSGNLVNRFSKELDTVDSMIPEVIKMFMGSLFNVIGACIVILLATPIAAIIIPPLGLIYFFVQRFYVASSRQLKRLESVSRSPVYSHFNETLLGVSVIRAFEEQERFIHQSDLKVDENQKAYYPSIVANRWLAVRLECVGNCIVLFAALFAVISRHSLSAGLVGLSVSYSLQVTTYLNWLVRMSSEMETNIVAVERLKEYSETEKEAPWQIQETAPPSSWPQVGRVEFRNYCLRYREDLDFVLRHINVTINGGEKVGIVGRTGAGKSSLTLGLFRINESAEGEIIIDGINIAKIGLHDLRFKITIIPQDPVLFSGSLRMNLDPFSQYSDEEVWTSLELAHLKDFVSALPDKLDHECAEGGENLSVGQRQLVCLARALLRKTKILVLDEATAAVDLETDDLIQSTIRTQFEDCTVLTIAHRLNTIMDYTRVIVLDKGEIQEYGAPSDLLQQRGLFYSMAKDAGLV

For `COc1cccc2c1C(=O)c1c(O)c3c(c(O)c1C2=O)C[C@@](O)(C(=O)CO)C[C@@H]3O[C@H]1C[C@H](N)[C@H](O)[C@H](C)O1` [DOXORUBICIN HYDROCHLORIDE], the IC50 in data set [1] worked out at 8.19 µM.

Consider `COc1ccc(CCN(C)CCCC(C#N)(c2ccc(OC)c(OC)c2)C(C)C)cc1OC` (stereo not drawn), for which the IC50 at 72 h was over 100 µM in data set [2] and 53.4 µM in data set [4]. For the same compound, in data set [3], the outcome was Active.

With `CC(C)(C)OC(=O)N1CC(CC(=O)N[C@H]2CC[C@]3(C)[C@H]4C[C@@H](O)[C@@H]5[C@@H]([C@]6(C)CC[C@H](C(C)(C)O)O6)CC[C@@]5(C)[C@]4(C)CC[C@H]3C2(C)C)C1`, the “Ratio IC50” value in [5] is recorded as 1; in data set [7], 14.8; in data set [8], 7.9; in data set [10], 1; in [19] it was 1.1; in data set [22], 1. Further, the “inhibition (INH)” value in data set [6] and in [15] was “Dose-Dependent Effect” each time. Further, the IC50 at 72 h in [2] is over 100 µM; in [4] (read-out: IC50), 63.1 µM. The Activity in data set [9] is 23%; in data set [11], “Not Active”; in data set [12] it was “Active”; in [13], “Dose-Dependent Effect”; in [3] it was “Active”; in data set [17] it was 36%. Besides, the Activity result in data set [21] is listed as “Not Active”. Besides, in [1], the IC50 was 44.9 µM. In [14], the viability at 10 µM stood at 92%. For the same compound, the result in data set [16] and in data set [18] was inactive. Further, the Ratio in data set [20] came to 211.8. Besides, the result in [23] was Active.

Take `CC(C)(O)[C@H]1CC[C@@](C)([C@H]2CC[C@]3(C)[C@@H]2[C@H](O)C[C@@H]2[C@@]4(C)CC[C@H](NC(=O)[C@@H]5CCCN5)C(C)(C)[C@@H]4CC[C@]23C)O1`: the Activity in data set [9] was 30%; in data set [3], “Not Active”; in [17], 38%. Besides, the viability at 10 µM in data set [14] amounted to 100%. The Ratio in data set [20] turned out to be 65.1.

Take `CC(C)(C)OC(=O)NCCCCCC(=O)N[C@H]1CC[C@]2(C)[C@H]3C[C@@H](O)[C@@H]4[C@@H]([C@]5(C)CC[C@H](C(C)(C)O)O5)CC[C@@]4(C)[C@]3(C)CC[C@H]2C1(C)C`: the outcome in data set [3] was Active.

With `CN(C)C(=O)CCSC(SCCC(=O)O)c1cccc(/C=C/c2ccc3ccc(Cl)cc3n2)c1` (stereo not drawn) [MK-571], the “Ratio IC50” value in [24] is recorded as 6.4.

With `COc1ccc2c3c([nH]c2c1)[C@H](CC(C)C)N1C(=O)[C@H](CCC(=O)OC(C)(C)C)NC(=O)[C@@H]1C3`, the “Ratio IC50” value in data set [19] worked out at 3.2.

Take `CC(C)(C)OC(=O)N1CCC[C@@H]1C(=O)N[C@H]1CC[C@]2(C)[C@H]3C[C@@H](O)[C@@H]4[C@@H]([C@]5(C)CC[C@H](C(C)(C)O)O5)CC[C@@]4(C)[C@]3(C)CC[C@H]2C1(C)C`: the Activity is given as 21% in data set [9], “Active” in data set [3] and 36% in [17]. Besides, the viability at 10 µM in data set [14] was found to be 88%. The Ratio in [20] is 157.7.

As for `COc1cc2c(cc1OC)CN(CCc1ccc(NC(=O)c3cc(OC)c(OC)cc3NC(=O)c3cnc4ccccc4c3)cc1)CC2`, the IC50 at 72 h is 40.3 µM in data set [2] and 8.03 µM in [4] (read-out: IC50). Moreover, in data set [25], the “inhibition (INH)” value was “Active”. Moreover, the IC50 in [1] was determined as 8.66 µM. In data set [20], the Ratio is 206.6.

As to `CC(C)(O)[C@H]1CC[C@@](C)([C@H]2CC[C@]3(C)[C@@H]2[C@H](O)C[C@@H]2[C@@]4(C)CC[C@H](O)C(C)(C)[C@@H]4CC[C@]23C)O1`, in data set [3], the Activity result was “Not Active”.

On to `CC(C)(O)[C@H]1CC[C@@](C)([C@H]2CC[C@]3(C)[C@@H]2[C@H](O)C[C@@H]2[C@@]4(C)CC[C@H](NC(=O)[C@@H]5CCCCN5)C(C)(C)[C@@H]4CC[C@]23C)O1`, for which the viability at 5 µM in data set [26] was 96%. The “Ratio IC50” value in [27] was determined as 116.7. Moreover, the Activity entry in data set [3] was “Active”; in [17], 41%.

Turning to `O=c1[nH]cc(F)c(=O)[nH]1` [FLUOROURACIL], in data set [1], the IC50 came out at 829 µM.

Regarding `CC(=O)O[C@H]1C(=O)[C@@]2(C)[C@H]([C@H](OC(=O)c3ccccc3)[C@]3(O)C[C@H](OC(=O)[C@H](O)[C@@H](NC(=O)c4ccccc4)c4ccccc4)C(C)=C1C3(C)C)[C@]1(OC(C)=O)CO[C@@H]1C[C@@H]2O`, the result in [28] and in data set [29] was inactive.

One may read the IC50 as the point on the concentration scale where inhibition reaches its midpoint.

For the origin of these results see ChEMBL document CHEMBL5500376, “Novel pyxinol amide derivatives bearing an aliphatic heterocycle as P-glycoprotein modulators for overcoming multidrug resistance” (Eur J Med Chem, 2024).
